Measurements taken from patent EP0911328B1, “SUBSTITUTED AMINOCYCLOALKYLPYRROLIDINE DERIVATIVES” (DAIICHI PHARMACEUTICAL CO., LTD., priority 1995, dated 1997).
Converted amounts (≈) assume the structure as drawn. Where two headings read alike, the source gives them in different places.

Experiments:
Experiment in all cases: Antibacterial activity (MIC), standard method of Japan Society of Chemotherapy
Type in all cases: cell-based
[1] = tested on: Str. pyogenes, G-36; conditions: Streptococcus pyogenes
Protocol: (§1) Examples of the present invention are given below by way of illustration and not by way of limitation. In this connection, antibacterial activity of each compound of interest was measured in accordance with the standard method designated by Japan Society of Chemotherapy. The results are shown in Tables 1 to 3 as minimum inhibitory concentration (MIC, µg/ml).

[2] = tested on: Ser. marcescens, 10100; conditions: Serratia marcescens, strain Ser. marcescens, read-out: minimum inhibitory concentration (MIC)
Protocol: as §1

[3] = tested on: Ps. aeruginosa, 32121; conditions: Pseudomonas aeruginosa, strain Ps. aeruginosa, read-out: minimum inhibitory concentration (MIC)
Protocol: as §1

[4] = tested on: S. epidermidis, 56500
Protocol: as §1

[5] = tested on: Str. faecalis, ATCC-19433; conditions: Enterococcus faecalis, ATCC19433, strain Str. faecalis, read-out: minimum inhibitory concentration (MIC)
Protocol: as §1

[6] = tested on: E. coli, NIHJ; conditions: Escherichia coli, read-out: minimum inhibitory concentration (MIC)
Protocol: as §1

[7] = tested on: Pr. mirabilis, IFO-3849; conditions: Proteus mirabilis, IFO3849, strain Pr. mirabilis, read-out: minimum inhibitory concentration (MIC)
Protocol: as §1

[8] = tested on: Ps. aeruginosa, 32104; conditions: Pseudomonas aeruginosa, strain Ps. aeruginosa, read-out: minimum inhibitory concentration (MIC)
Protocol: as §1

[9] = tested on: S. aureus, 870307; conditions: Staphylococcus aureus, strain S. aureus, read-out: minimum inhibitory concentration (MIC)
Protocol: as §1

[10] = tested on: S. flexneli, 2A 5503; conditions: strain S. flexneli, read-out: minimum inhibitory concentration (MIC)
Protocol: as §1

[11] = tested on: Ps. maltophilia, IID-1275; conditions: Stenotrophomonas maltophilia, IID1275, strain Ps. maltophilia, read-out: minimum inhibitory concentration (MIC)
Protocol: as §1

[12] = tested on: Pr. vulgaris, 08601
Protocol: as §1

[13] = tested on: S. aureus, 209P; conditions: Staphylococcus aureus, strain S. aureus, read-out: minimum inhibitory concentration (MIC)
Protocol: as §1

[14] = G36, strain Str. pyogenes, G-36, read-out: minimum inhibitory concentration (MIC)
[15] = Staphylococcus epidermidis, 56500, read-out: minimum inhibitory concentration (MIC)
[16] = Proteus vulgaris, strain Pr. vulgaris, 08601, read-out: minimum inhibitory concentration (MIC)
[17] = Staphylococcus epidermidis, strain S. epidermidis, 56500, read-out: minimum inhibitory concentration (MIC)

SMILES	MIC [1, 14] [µg/mL]	MIC [2] [µg/mL]	MIC [3] [µg/mL]	MIC [4, 15] [µg/mL]	MIC [5] [µg/mL]	MIC [6] [µg/mL]	MIC [7] [µg/mL]	MIC [8] [µg/mL]	MIC [9] [µg/mL]	MIC [10] [µg/mL]	MIC [11] [µg/mL]	MIC [12, 16] [µg/mL]	MIC [13] [µg/mL]	MIC [4, 17] [µg/mL]	MIC ([6]; strain E. coli, NIHJ) [µg/mL]	MIC ([12]; Proteus vulgaris, 08601, read-out: minimum inhibitory concentration (MIC)) [µg/mL]	MIC ([1]; G36, read-out: minimum inhibitory concentration (MIC)) [µg/mL]
CO[C@H]1CN(c2c(F)c(N)c3c(=O)c(C(=O)O)cn([C@@H]4C[C@@H]4F)c3c2C)C[C@@H]1C1(N)CC1 [compound 4]	0.025 (≈ 0.0557 µM)	0.2 (≈ 0.446 µM)	0.39 (≈ 0.87 µM)	0.013 (≈ 0.029 µM)	0.1 (≈ 0.223 µM)	0.013 (≈ 0.029 µM)	0.2 (≈ 0.446 µM)	0.78 (≈ 1.74 µM)	0.1 (≈ 0.223 µM)	0.013 (≈ 0.029 µM)	0.2 (≈ 0.446 µM)	0.1 (≈ 0.223 µM)	≤ 0.003				
C[C@H]1COc2c(N3C[C@H](C4(N)CC4)C(F)(F)C3)c(F)cc3c(=O)c(C(=O)O)cn1c23 [compound 8]	0.1 (≈ 0.236 µM)	0.39 (≈ 0.921 µM)	0.39 (≈ 0.921 µM)		0.2 (≈ 0.472 µM)		0.78 (≈ 1.84 µM)	1.56 (≈ 3.68 µM)	0.78 (≈ 1.84 µM)	0.05 (≈ 0.118 µM)	0.39 (≈ 0.921 µM)	0.1 (≈ 0.236 µM)	0.025 (≈ 0.059 µM)	0.05 (≈ 0.118 µM)	0.025 (≈ 0.059 µM)		
Cc1c(N2C[C@H](C3(N)CC3)C(F)(F)C2)c(F)c(N)c2c(=O)c(C(=O)O)cn([C@@H]3C[C@@H]3F)c12 [compound 7]	≤ 0.003	0.05 (≈ 0.11 µM)	0.05 (≈ 0.11 µM)		0.013 (≈ 0.0286 µM)		0.025 (≈ 0.055 µM)	0.1 (≈ 0.22 µM)	0.013 (≈ 0.0286 µM)	≤ 0.003	0.05 (≈ 0.11 µM)	0.05 (≈ 0.11 µM)	≤ 0.003	≤ 0.003	≤ 0.003		
COc1c(N2C[C@@H](F)[C@@H](C3(N)CC3)C2)c(F)cc2c(=O)c(C(=O)O)cn([C@@H]3C[C@@H]3F)c12 [compound 12]	0.006 (≈ 0.0137 µM)	0.1 (≈ 0.229 µM)	0.1 (≈ 0.229 µM)	0.013 (≈ 0.0297 µM)	0.025 (≈ 0.0572 µM)		0.05 (≈ 0.114 µM)	0.39 (≈ 0.892 µM)	0.025 (≈ 0.0572 µM)	0.013 (≈ 0.0297 µM)	0.2 (≈ 0.457 µM)		≤ 0.003		≤ 0.003	0.013 (≈ 0.0297 µM)	
Cc1c(N2C[C@H](F)[C@@H](C3(N)CC3)C2)c(F)c(N)c2c(=O)c(C(=O)O)cn([C@@H]3C[C@@H]3F)c12 [compound 5]	≤ 0.003	0.05 (≈ 0.115 µM)	0.05 (≈ 0.115 µM)		0.013 (≈ 0.0298 µM)		0.025 (≈ 0.0573 µM)	0.1 (≈ 0.229 µM)	0.006 (≈ 0.0137 µM)	≤ 0.003	0.05 (≈ 0.115 µM)	0.013 (≈ 0.0298 µM)	≤ 0.003		≤ 0.003		
C[C@H]1COc2c(N3C[C@H](F)[C@@H](C4(N)CC4)C3)c(F)cc3c(=O)c(C(=O)O)cn1c23 [compound 6]		0.1 (≈ 0.247 µM)	0.2 (≈ 0.493 µM)	0.025 (≈ 0.0617 µM)	0.1 (≈ 0.247 µM)		0.2 (≈ 0.493 µM)	0.78 (≈ 1.92 µM)	0.39 (≈ 0.962 µM)	0.025 (≈ 0.0617 µM)	0.39 (≈ 0.962 µM)	0.05 (≈ 0.123 µM)	0.006 (≈ 0.0148 µM)		0.013 (≈ 0.0321 µM)		0.025 (≈ 0.0617 µM)
